Consider six compounds from PMC6466835 (ACS Medicinal Chemistry Letters, 2019).

Data set [1] deals with supercoiled plasmid pBR322. The data set can be described thus: DNA cleavage assay. Format: biochemical.
The test system of data set [2] is double-stranded oligodeoxynucleotide (dsDNA). Description: ESI-MS analysis of DNA alkylation. Format: biochemical. The following applies: 50 μM compound, 2 μM dsDNA.
Data set [3] is described as follows: Parallel artificial membrane permeation assay. Format: in vitro ADME. The note with it: incubation for 1 h, PBS pH 7.4.
Data set [4] has as its system BxPC-3 pancreatic carcinoma cells. The data set can be described thus: MTT cytotoxicity assay, BxPC-3. The note with it: BxPC-3 cells, L-1 versus D-1. Format: cell-based.
The mark [5] stands for this setting: 2 h at 37 °C, highest concentration 50 μM.

Molecules are shown by their SMILES.

In the case of `CCCCN1CCCC(Cl)C1` (stereo not shown) [Compound 1], the DNA cleavage activity result in data set [1] (2 h at 37 °C, 5 and 50 μM) is “inactive”. Further, the “DNA modifications detected by ESI-MS” value is “exclusively the signal corresponding to the unreacted DNA substrate” in data set [2] (2 h at 37 °C); “formation of adducts and of abasic lesions” in data set [2] (18 h at 37 °C).
In the case of `CCCCN1CC(Cl)CC(C)(C)C1` (stereo not shown) [Compound 2], the DNA cleavage activity entry in data set [1] (setting [5]) was “caused the conversion of supercoiled DNA into the OC form”. Further, the “DNA modifications detected by ESI-MS” value is “additional peaks corresponding to 3-chloropiperidine–DNA adducts were detected” in data set [2] (2 h at 37 °C); “formation of adducts and of abasic lesions” in data set [2] (18 h at 37 °C). The “PAMPA permeation, in words” value in data set [3] is given as “barely detected in the acceptor compartment”.
Regarding `CC1(C)CC(Cl)CN(Cc2ccccc2)C1` (stereo not shown) [Compound 3], the DNA cleavage activity entry in data set [1] (setting [5]) is “caused the conversion of supercoiled DNA into the OC form”. Further, the “PAMPA permeation, in words” value in data set [3] was “barely detected in the acceptor compartment”.
In the case of `CCCCN1CCC[C@H](Cl)C1` [D-1], the DNA cleavage activity result in data set [1] (18 h at 37 °C, 5 and 50 μM) is “inactive even after prolonged incubation”.
Turning to `CCCCN1CCC[C@@H](Cl)C1` [L-1], the eudismic ratio in data set [4] is reported as approximately 40. The DNA cleavage activity result in data set [1] (18 h at 37 °C, 5 and 50 μM) is “more active than the racemate 1”.
Turning to `O=C(O)CCCc1ccc(N(CCCl)CCCl)cc1` [chlorambucil, reference compound], the DNA cleavage activity entry in data set [1] (2 h at 37 °C, 5 and 50 μM) was “inactive at all concentrations”.
